Measurements reported in the supplement of paper PMC10307832.

Assays:
Assay in all cases: relative viability (nuclei count vs DMSO), 5 days (fraction); higher = more cells survive
Dovitinib + Navitoclax = compound: CN1CCN(c2ccc3nc(-c4c(N)c5c(F)cccc5[nH]c4=O)[nH]c3c2)CC1 [Dovitinib] + CC1(C)CCC(c2ccc(Cl)cc2)=C(CN2CCN(c3ccc(C(=O)NS(=O)(=O)c4ccc(N[C@H](CCN5CCOCC5)CSc5ccccc5)c(S(=O)(=O)C(F)(F)F)c4)cc3)CC2)C1 [Navitoclax] (partner 0.5 µM)
How it was run: (§1)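 Lung cancer cell lines in 1536-well plates got either a single drug or a fixed anchor-drug dose together with five library-drug doses (not always all listed) in √10 steps, by pin tool, on the day after seeding. Nuclei were counted after 5 days, and relative viability is the treated-to-vehicle ratio of nuclei counts. Values are medians of duplicate plates.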

Dovitinib + Luminespib = compound: CN1CCN(c2ccc3nc(-c4c(N)c5c(F)cccc5[nH]c4=O)[nH]c3c2)CC1 [Dovitinib] + CCNC(=O)c1noc(-c2cc(C(C)C)c(O)cc2O)c1-c1ccc(CN2CCOCC2)cc1 [Luminespib] (partner 0.01 µM)
How it was run: as §1

Dovitinib + Foretinib = compound: CN1CCN(c2ccc3nc(-c4c(N)c5c(F)cccc5[nH]c4=O)[nH]c3c2)CC1 [Dovitinib] + COc1cc2c(Oc3ccc(NC(=O)C4(C(=O)Nc5ccc(F)cc5)CC4)cc3F)ccnc2cc1OCCCN1CCOCC1 [Foretinib] (partner 0.25 µM)
How it was run: as §1

Dovitinib + Linsitinib = compound: CN1CCN(c2ccc3nc(-c4c(N)c5c(F)cccc5[nH]c4=O)[nH]c3c2)CC1 [Dovitinib] + C[C@]1(O)C[C@@H](c2nc(-c3ccc4ccc(-c5ccccc5)nc4c3)c3c(N)nccn32)C1 [Linsitinib] (partner 1 µM)
How it was run: as §1

| Cell Line | relative viability (Dovitinib + Navitoclax; first compound 0.02 µM) | relative viability (Dovitinib + Navitoclax; first compound 0.06325 µM) | relative viability (Dovitinib + Navitoclax; first compound 0.2 µM) | relative viability (Dovitinib + Navitoclax; first compound 0.6325 µM) | relative viability (Dovitinib + Navitoclax; first compound 2 µM) | relative viability (Dovitinib + Luminespib; first compound 0.02 µM) | relative viability (Dovitinib + Luminespib; first compound 0.06325 µM) | relative viability (Dovitinib + Luminespib; first compound 0.2 µM) | relative viability (Dovitinib + Luminespib; first compound 0.6325 µM) | relative viability (Dovitinib + Luminespib; first compound 2 µM) | relative viability (Dovitinib + Foretinib; first compound 0.02 µM) | relative viability (Dovitinib + Foretinib; first compound 0.06325 µM) | relative viability (Dovitinib + Foretinib; first compound 0.2 µM) | relative viability (Dovitinib + Foretinib; first compound 0.6325 µM) | relative viability (Dovitinib + Foretinib; first compound 2 µM) | relative viability (Dovitinib + Linsitinib; first compound 0.02 µM) | relative viability (Dovitinib + Linsitinib; first compound 0.06325 µM) | relative viability (Dovitinib + Linsitinib; first compound 0.2 µM) | relative viability (Dovitinib + Linsitinib; first compound 0.6325 µM) | relative viability (Dovitinib + Linsitinib; first compound 2 µM) |
| --- | --- | --- | --- | --- | --- | --- | --- | --- | --- | --- | --- | --- | --- | --- | --- | --- | --- | --- | --- | --- |
| PC-3 [JPC-3] | 0.834 | 0.841 | 0.861 | 0.802 | 0.777 | 0.681 | 0.695 | 0.722 | 0.782 | 0.71 | 1.08 | 1 | 1.1 | 1.01 | 1.05 | 0.923 | 0.907 | 0.983 | 0.99 | 0.967 |
| PC-14 | 0.998 | 1.08 | 1 | 0.988 | 0.939 | 0.147 | 0.158 | 0.15 | 0.17 | 0.16 | 0.976 | 0.91 | 0.945 | 0.945 | 0.914 | 1.03 | 0.954 | 0.969 | 0.996 | 0.928 |
| RERF-LC-KJ | 0.794 | 1.06 | 1.1 | 1.15 | 1.09 | 1.32 | 1.25 | 1.4 | 1.19 | 1.47 | 0.832 | 0.905 | 0.96 | 0.886 | 0.858 | 0.89 | 0.934 | 0.938 | 0.838 | 0.842 |
| SK-LU-1 | 0.787 | 1.09 | 0.835 | 0.748 | 0.925 | 0.203 | 0.19 | 0.204 | 0.18 | 0.198 | 0.875 | 0.904 | 0.789 | 0.773 | 0.845 | 1.1 | 0.999 | 0.966 | 1.07 | 1.06 |
| SK-MES-1 | 1.24 | 1.21 | 1.16 | 1.31 | 1.27 | 0.653 | 0.949 | 0.785 | 0.661 | 0.887 | 0.895 | 0.993 | 0.927 | 0.86 | 0.919 | 1.09 | 1.02 | 1.09 | 1.15 | 1.07 |
| SW 1573 | 1.03 | 0.934 | 1.02 | 0.97 | 1 | 0.264 | 0.214 | 0.275 | 0.525 | 0.29 | 0.837 | 0.913 | 0.877 | 0.88 | 0.885 | 0.798 | 0.795 | 0.749 | 0.766 | 0.864 |
| UMC-11 | 0.364 | 0.308 | 0.373 | 0.297 | 0.318 | 0.964 | 1.03 | 0.979 | 1 | 0.996 | 1.05 | 1.04 | 1.01 | 1 | 1.05 | 0.983 | 1.1 | 0.986 | 1.07 | 1.07 |
